The source of these data is US20240109853A1 (Shanghai Yao Yuan Biotechnology Co., Ltd., priority 2020, published 2024).

For assay [1], the system named is ALPK1-dependent NFκB reporter gene activation in HEK293 cells stably expressing an NF-kB reporter (G9 cells). The assay is described as follows: NFκB gene reporter alkaline phosphatase assay. The format is cell-based. Conditions: Homo sapiens, HEK293; read-out: NFkB assay IC50. The text has this:
In embodiments, a compound of Formula I, or a subembodiment described herein, is an inhibitor of ALPK1 as measured, for example, in an in vitro kinase assay, or an assay designed to measure the activation of downstream targets of ALPK1 pathway activation, for example NFkB transcriptional activation and the secretion of proinflammatory cytokines and chemokines, such as IL-8, which is also referred to as CXCL-8. In general, the computer program XL fit was used for data analysis, including non-linear regression analysis. The half maximal inhibitory concentration (IC50) was used as the measure of a compound's effectiveness in the assays. IC50 values were determined using the following logistic equation Y=min+(max−min)/(1+(X/IC50^−hillslpoe), where Y is the value at the compound concentration, X. The concentration response curve fitting was conducted using GraphPad Prism version 6.00 software.
An alkaline phosphatase reporter assay system was used to measure inhibition of ALPK1-dependent NFκB reporter gene activation. Briefly, HEK293 cells stably expressing an NF-kB reporter (referred to herein as “G9 cells”) were maintained in DMEM as described above. For the assay, cells were seeded into 96-well plates at a density of 10,000 cells/well in Freestyle™ 293 Expression Medium (ThermoFisher), and allowed to attach overnight. Cells were pretreated with serially diluted compounds for 30 min and then stimulated with D-glycero-D-manno-6-fluoro-heptose-1β-S-ADP. […] NFkB gene activation was detected using the chromogenic substrate, para-nitrophenyl phosphate (pNPP) according to the manufacturer's protocols (pNPP Phosphatase Assay, Beyotime Biotechnology).

For assay [2], the target named is ALPK1 (Homo sapiens (Human), UniProt Q96QP1). The assay is described as follows: ALPK1 in vitro kinase assay (HTRF of TIFA phosphorylation). In kind it is biochemical. Background: Time-resolved FRET reads energy transfer from a long-lived donor to a nearby acceptor.
Sequence of ALPK1 (Q96QP1 whole entry): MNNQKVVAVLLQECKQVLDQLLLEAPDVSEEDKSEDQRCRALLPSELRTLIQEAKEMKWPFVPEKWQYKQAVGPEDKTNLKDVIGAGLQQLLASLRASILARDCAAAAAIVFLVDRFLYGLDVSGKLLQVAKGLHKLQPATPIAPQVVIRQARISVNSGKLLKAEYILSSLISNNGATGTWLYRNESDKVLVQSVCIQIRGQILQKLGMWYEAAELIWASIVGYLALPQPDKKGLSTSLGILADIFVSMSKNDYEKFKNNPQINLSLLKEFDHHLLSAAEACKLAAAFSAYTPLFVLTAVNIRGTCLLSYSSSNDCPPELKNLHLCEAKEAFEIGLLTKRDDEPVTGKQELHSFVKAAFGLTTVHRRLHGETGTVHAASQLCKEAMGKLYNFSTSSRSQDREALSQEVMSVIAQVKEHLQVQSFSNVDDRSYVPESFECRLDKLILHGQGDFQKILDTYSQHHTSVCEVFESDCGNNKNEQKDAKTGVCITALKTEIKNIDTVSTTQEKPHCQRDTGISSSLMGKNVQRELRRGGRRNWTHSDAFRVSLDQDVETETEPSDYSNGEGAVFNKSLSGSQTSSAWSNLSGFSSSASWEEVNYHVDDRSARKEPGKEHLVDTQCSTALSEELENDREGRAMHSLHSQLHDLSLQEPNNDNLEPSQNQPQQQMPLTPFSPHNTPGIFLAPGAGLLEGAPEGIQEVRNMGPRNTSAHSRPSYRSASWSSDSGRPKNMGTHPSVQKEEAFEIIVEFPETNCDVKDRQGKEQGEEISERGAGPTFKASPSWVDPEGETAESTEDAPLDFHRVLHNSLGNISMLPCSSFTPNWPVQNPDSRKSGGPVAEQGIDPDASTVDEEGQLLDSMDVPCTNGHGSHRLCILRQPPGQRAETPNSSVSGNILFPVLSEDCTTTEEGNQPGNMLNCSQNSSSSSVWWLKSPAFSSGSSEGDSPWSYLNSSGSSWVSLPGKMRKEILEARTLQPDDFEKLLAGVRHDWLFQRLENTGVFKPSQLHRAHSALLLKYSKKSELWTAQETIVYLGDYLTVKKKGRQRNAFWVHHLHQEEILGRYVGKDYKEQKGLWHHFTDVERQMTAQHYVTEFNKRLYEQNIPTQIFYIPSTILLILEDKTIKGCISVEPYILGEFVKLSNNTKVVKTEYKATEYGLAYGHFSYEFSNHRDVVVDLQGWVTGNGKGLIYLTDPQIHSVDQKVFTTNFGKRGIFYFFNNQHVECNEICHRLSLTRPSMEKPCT

In general, IC50 refers to the concentration at which inhibition is half-maximal. As for `CC(C)(c1ccc(Br)cc1)c1csc(NC(=O)NCCCO)n1` [Example A126, 1-(4-(2-(4-bromophenyl)propan-2-yl)thiazol-2-yl)-3-(3-hydroxypropyl)urea], the IC50 in assay [1] amounted to 2960 nM; in assay [2], 88 nM.

With `C#C[C@](C)(c1ccc(Br)cc1)c1csc(NC(=O)NCC(O)CO)n1` (stereo in doubt) [Example A277, 1-(4-(2-(4-bromophenyl)but-3-yn-2-yl)thiazol-2-yl)-3-(2,3-dihydroxypropyl)urea], the IC50 in assay [1] came out at 1230 nM; in assay [2] it was 2670 nM.

As for `CC(C)(c1ccc(Br)cc1)c1csc(NC(=O)NCc2ccc(N3CCC(CN)CC3)cc2)n1` [Example A211, 1-(4-(4-(aminomethyl)piperidin-1-yl)benzyl)-3-(4-(2-(4-bromophenyl)propan-2-yl)thiazol-2-yl)urea], the 50% inhibitory concentration (IC50) in assay [1] worked out at 2590 nM; in assay [2], 94 nM.

In the case of `CC(C)(c1ccc(Br)cc1)c1csc(NC(=O)NCc2ccc(NCCN)c(F)c2)n1` [Example A198, 1-(4-((2-aminoethyl)amino)-3-fluorobenzyl)-3-(4-(2-(4-bromophenyl)propan-2-yl)thiazol-2-yl)urea], the half-maximal inhibitory concentration (IC50) stood at 1320 nM in assay [1] and 18 nM in assay [2].

For the compound `CC(C)(c1ccc(Br)cc1)c1csc(NC(=O)NCc2cccc(N3CCNCC3)n2)n1` [Example A182, 1-(4-(2-(4-bromophenyl)propan-2-yl)thiazol-2-yl)-3-((6-(piperazin-1-yl)pyridin-2-yl)methyl)urea], the IC50 in assay [1] worked out at 4300 nM; in assay [2] it was 163 nM.

As to `CCOc1ccc(C(C)(C)c2csc(NC(=O)NCc3cnc(N4CCNCC4)nc3)n2)cc1` [Example A087, 1-(4-(2-(4-ethoxyphenyl)propan-2-yl)thiazol-2-yl)-3-((2-(piperazin-1-yl)pyrimidin-5-yl)methyl)urea], the IC50 in assay [1] turned out to be 1740 nM; in assay [2], 89 nM.

With `COc1ccc(C(C)(C)c2csc(NC(=O)NCc3cnc(N4CCNCC4)nc3)n2)cc1` [Example A086, 1-(4-(2-(4-methoxyphenyl)propan-2-yl)thiazol-2-yl)-3-((2-(piperazin-1-yl)pyrimidin-5-yl)methyl)urea], the results for the IC50 in assay [1] and in assay [2] were 390 nM and 16 nM, respectively.

Turning to `COc1ccc(C(C)(C)c2csc(NC(=O)NCc3cnc(N4CCN(CCO)CC4)c(F)c3)n2)cc1` [Example A216, 1-((5-fluoro-6-(4-(2-hydroxyethyl)piperazin-1-yl)pyridin-3-yl)methyl)-3-(4-(2-(4-methoxyphenyl)propan-2-yl)thiazol-2-yl)urea], the IC50 in assay [1] amounted to 1430 nM; in assay [2], 61 nM.

Consider `CC(C)NC(=O)Nc1nc(C(C)(C)c2ccc(Br)cc2)cs1` [Example A125, 1-(4-(2-(4-bromophenyl)propan-2-yl)thiazol-2-yl)-3-isopropylurea], for which the IC50 in assay [1] is 2800 nM; in assay [2], 28 nM.

As for `CC(C)(c1ccc(Br)cc1)c1csc(NC(=O)NCc2cnc(N3CCC(O)CC3)nc2)n1` [Example A082, 1-(4-(2-(4-bromophenyl)propan-2-yl)thiazol-2-yl)-3-((2-(4-hydroxypiperidin-1-yl)pyrimidin-5-yl)methyl)urea], the IC50 came to 6150 nM in assay [1] and 125 nM in assay [2].

`CC(C)(c1ccc(Br)cc1)c1csc(NC(=O)NCc2ccc(N3CCNCC3)c(Cl)c2)n1` [Example A219, 1-(4-(2-(4-bromophenyl)propan-2-yl)thiazol-2-yl)-3-(3-chloro-4-(piperazin-1-yl)benzyl)urea]: the IC50 in assay [1] was found to be 2730 nM; in assay [2], 46 nM.

Turning to `CC(C)(c1ccc(Br)cc1)c1csc(NC(=O)NCc2ccc(OCC(=O)N3CCNCC3)cc2)n1` [Example A033, 1-(4-(2-(4-bromophenyl)propan-2-yl)thiazol-2-yl)-3-(4-(2-oxo-2-(piperazin-1-yl)ethoxy)benzyl)urea], the IC50 in assay [1] was 3190 nM; in assay [2] it was 80 nM.

With `CN1CCN(Cc2ccc(CNC(=O)Nc3nc(C(C)(C)c4ccc(Br)cc4)cs3)cc2)CC1` [Example A016, 1-(4-(2-(4-bromophenyl)propan-2-yl)thiazol-2-yl)-3-(4-((4-methylpiperazin-1-yl)methyl)benzyl)urea], the figures for the IC50 in assay [1] and in assay [2] were 2340 nM and 27 nM, respectively.

In the case of `COc1ccc(C(C)(C)c2csc(NC(=O)NCc3ccc(N4CC5CC4CN5)c(C(N)=O)c3)n2)cc1` (stereo not shown) [Example A064, 2-(2,5-diazabicyclo[2.2.1]heptan-2-yl)-5-((3-(4-(2-(4-methoxyphenyl)propan-2-yl)thiazol-2-yl)ureido)methyl)benza-mide], the IC50 in assay [1] was 19700 nM; in assay [2], 41 nM.

For `COc1ccc(C(C)(C)c2csc(NC(=O)NCc3cnc(N4CCC(C(N)=O)CC4)nc3)n2)cc1` [Example A215, 1-(5-((3-(4-(2-(4-methoxyphenyl)propan-2-yl)thiazol-2-yl)ureido)methyl)pyrimi-din-2-yl)piperidine-4-carboxamide], the 50% inhibitory concentration (IC50) turned out to be 2210 nM in assay [1] and 150 nM in assay [2].

Turning to `C#CC(C)(c1ccc(Br)cc1)c1csc(NC(=O)NCCO)n1` (stereo not shown) [Example A159, 1-(4-(2-(4-bromophenyl)but-3-yn-2-yl)thiazol-2-yl)-3-(4-hydroxyethyl)urea], the IC50 in assay [1] is 490 nM; in assay [2], 48 nM.

As to `COc1ccc(C(C)(C)c2csc(NC(=O)NCCCN3CCN(C)CC3)n2)cc1` [Example A142, 1-(4-(2-(4-methoxyphenyl)propan-2-yl)thiazol-2-yl)-3-(3-(4-methylpiperazin-1-yl)propyl)urea], the IC50 in assay [1] is 1330 nM; in assay [2] it was 180 nM.

As to `CC(C)(c1ccc(Br)cc1)c1csc(NC(=O)NCCCS(N)(=O)=O)n1` [Example A132, 3-(3-(4-(2-(4-bromophenyl)propan-2-yl)thiazol-2-yl)ureido)propane-1-sulfonamide], the IC50 in assay [1] turned out to be 4560 nM; in assay [2], 80 nM.

On to `COc1ccc(C(C)(C)c2csc(NC(=O)NCc3ccc(N4CCNCC4)c(CO)c3)n2)cc1` [Example A058, 1-(3-(hydroxymethyl)-4-(piperazin-1-yl)benzyl)-3-(4-(2-(4-methoxyphenyl)propan-2-yl)thiazol-2-yl)urea], for which the values for the IC50 in assay [1] and in assay [2] were 3100 nM and 130 nM, respectively.

Consider `COc1ccc(C(C)(C)c2csc(NC(=O)NC3CCC(O)CC3)n2)cc1` (stereo not shown) [Example A122, 1-(4-hydroxycyclohexyl)-3-(4-(2-(4-methoxyphenyl)propan-2-yl)thiazol-2-yl)urea], for which the IC50 is 1700 nM in assay [1] and 219 nM in assay [2].

As to `CC(C)(c1ccc(Cl)c(F)c1)c1csc(NC(=O)NCc2ccc(N3CCNCC3)cc2)n1` [Example A031, 1-(4-(2-(4-chloro-3-fluorophenyl)propan-2-yl)thiazol-2-yl)-3-(4-(piperazin-1-yl)benzyl)urea], the results for the IC50 in assay [1] and in assay [2] were 1450 nM and 345 nM, respectively.

Turning to `C#C[C@](C)(c1ccc(Cl)cc1)c1csc(NC(=O)NCC2(O)CNC2)n1` (stereo in doubt) [Example A286, 1-(4-(2-(4-chlorophenyl)but-3-yn-2-yl)thiazol-2-yl)-3-((3-hydroxyazetidin-3-yl)methyl)urea], the figures for the IC50 in assay [1] and in assay [2] were 15400 nM and 495 nM, respectively.

As to `COc1ccc(C(C)(C)c2csc(NC(=O)NCCCCN3CCC(N)C3)n2)cc1` (stereo not shown) [Example A077, 1-(4-(3-aminopyrrolidin-1-yl)butyl)-3-(4-(2-(4-methoxyphenyl)propan-2-yl)thiazol-2-yl)urea], the values for the IC50 in assay [1] and in assay [2] were 2970 nM and 180 nM, respectively.

For the compound `COc1ccc(C(C)(C)c2csc(NC(=O)NCc3ccc(C(=O)NCCN)cc3)n2)cc1` [Example A218, N-(2-aminoethyl)-4-((3-(4-(2-(4-methoxyphenyl)propan-2-yl)thiazol-2-yl)ureido)methyl)benza-mide], the IC50 was 6710 nM in assay [1] and 29 nM in assay [2].

Turning to `C#CC(C)(c1ccc(OC)cc1)c1csc(NC(=O)NC(C)c2ccc(N3CCNCC3)cc2)n1` (stereo not shown) [Example A234, 1-(4-(2-(4-methoxyphenyl)but-3-yn-2-yl)thiazol-2-yl)-3-(1-(4-(piperazin-1-yl)phenyl)ethyl)urea], the IC50 in assay [1] is 2670 nM.

Regarding `C#CC(C)(c1ccc(Br)cc1)c1csc(NC(=O)NCCN2CCNCC2)n1` (stereo not shown) [Example A239, 1-(4-(2-(4-bromophenyl)but-3-yn-2-yl)thiazol-2-yl)-3-(2-(piperazin-1-yl)ethyl)urea], in assay [1], the IC50 amounted to 850 nM.

On to `C#C[C@@](C)(c1ccc(Cl)cc1)c1nc(NC(=O)NCCO)sc1Cl` [Example A247, (S)-1-(5-chloro-4-(2-(4-chlorophenyl)but-3-yn-2-yl)thiazol-2-yl)-3-(2-hydroxyethyl)urea], for which, in assay [1], the IC50 is 1850 nM.

`CC(C)(c1ccc(I)cc1)c1csc(NC(=O)NCc2cnc(N3CCNCC3)nc2)n1` [Example A178, 1-(4-(2-(4-iodophenyl)propan-2-yl)thiazol-2-yl)-3-((2-(piperazin-1-yl)pyrimidin-5-yl)methyl)urea]: in assay [1], the IC50 was 920 nM.
